Measurements taken from patent US6117840A, “CS-1 peptidomimetics, compositions and methods of using the same” (Cytel Corporation, priority 1997, dated 2000).
Peptide text beside a SMILES is read from it.

Test system: Jurkat T cell line
Test: Binding of Jurkat cells to frozen human RA synovial sections
Format: cell-based
Details: 10-mer at 500 μg/ml; inhibitor peptide at its IC50
Procedure: Binding studies were carried out using the Jurkat T cell line and frozen RA synovial sections. […] Stimulated MOLT-4 cells behaved similarly.

In the case of CC[C@H](C)[C@H](NC(=O)[C@H](CCC(=O)O)NC(=O)[C@@H]1CCCN1C(=O)CN)C(=O)N[C@@H](CC(C)C)C(=O)N[C@@H](CC(=O)O)C(=O)N[C@H](C(=O)N1CCC[C@H]1C(=O)N[C@@H](CO)C(=O)N[C@H](C(=O)O)[C@@H](C)O)C(C)C [G P E I L D V P S T free amine free acid, GPEILDVPST] (H-GPEILDVPST-OH), the “inhibition of Jurkat cell adhesion to RA synovial sections” value is reported as “could be inhibited”.
